Source: article PMC12247293 (Journal of Translational Medicine, 2025)
pKd: −log10 of the molar value.

Molecular target: STAT3 (Homo sapiens, UniProt P40763)
Assay: SPR
Assay type: binding

STAT3, sequence (P40763 2-770): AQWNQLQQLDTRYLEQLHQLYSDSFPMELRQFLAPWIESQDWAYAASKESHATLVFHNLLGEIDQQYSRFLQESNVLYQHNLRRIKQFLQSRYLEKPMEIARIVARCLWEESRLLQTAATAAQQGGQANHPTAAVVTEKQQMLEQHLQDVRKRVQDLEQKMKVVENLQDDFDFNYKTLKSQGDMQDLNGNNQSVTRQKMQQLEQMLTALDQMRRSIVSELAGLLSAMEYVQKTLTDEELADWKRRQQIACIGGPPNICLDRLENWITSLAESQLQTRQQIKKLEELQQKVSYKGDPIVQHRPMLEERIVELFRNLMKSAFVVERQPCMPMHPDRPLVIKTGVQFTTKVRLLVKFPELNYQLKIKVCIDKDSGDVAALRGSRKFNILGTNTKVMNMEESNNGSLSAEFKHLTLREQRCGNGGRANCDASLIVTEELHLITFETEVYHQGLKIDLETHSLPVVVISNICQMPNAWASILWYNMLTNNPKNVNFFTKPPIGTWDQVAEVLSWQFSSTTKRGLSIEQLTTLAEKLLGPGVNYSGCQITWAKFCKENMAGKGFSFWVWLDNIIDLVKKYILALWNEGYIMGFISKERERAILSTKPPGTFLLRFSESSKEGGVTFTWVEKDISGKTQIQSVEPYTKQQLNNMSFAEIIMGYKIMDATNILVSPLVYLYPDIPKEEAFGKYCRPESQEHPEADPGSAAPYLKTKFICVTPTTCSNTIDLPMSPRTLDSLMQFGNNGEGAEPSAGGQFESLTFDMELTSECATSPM

**Q.** How did the pKd turn out when Fc1ccc(-n2cc(CCCCN3CCC4(CC3)OCc3ccccc34)c3ccccc32)cc1 [Siramesine] was run?
**A.** 3.06
